# Measurements as given in PubChem BioAssay (NCI).
#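 Cells were grown in 96-well plates and exposed to each compound for 48 hours at five concentrations; endpoints were interpolated linearly between bracketing concentrations, or set to the highest concentration if not reached. GI50 marks 50% less growth. TGI marks complete inhibition of growth.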
# Assays:
# Experiment in all cases: growth of human tumour cells (NCI), 48 h
# SK-OV-3 ovarian = system: SK-OV-3 ovarian
# SR leukemia = system: SR leukemia
# KM12 colon = system: KM12 colon
# 786-0 renal = system: 786-0 renal
# HCT-116 colon = system: HCT-116 colon
# OVCAR-8 ovarian = system: OVCAR-8 ovarian
# UACC-257 melanoma = system: UACC-257 melanoma
# SW-620 colon = system: SW-620 colon
# SF-268 CNS = system: SF-268 CNS
# OVCAR-3 ovarian = system: OVCAR-3 ovarian
# HCT-15 colon = system: HCT-15 colon
# SF-539 CNS = system: SF-539 CNS
# SN12C renal = system: SN12C renal
# SK-MEL-2 melanoma = system: SK-MEL-2 melanoma
# UO-31 renal = system: UO-31 renal
# HT29 colon = system: HT29 colon
# HOP-62 NSCLC = system: HOP-62 NSCLC
# IGROV1 ovarian = system: IGROV1 ovarian
# SK-MEL-28 melanoma = system: SK-MEL-28 melanoma
# MDA-MB-435 = system: MDA-MB-435
# MOLT-4 leukemia = system: MOLT-4 leukemia
# NCI-H226 lung = system: NCI-H226 lung
# LOX IMVI melanoma = system: LOX IMVI melanoma
# SF-295 CNS = system: SF-295 CNS
# HCC-2998 colon = system: HCC-2998 colon
# BT-549 breast = system: BT-549 breast
# ACHN renal = system: ACHN renal
# NCI-H23 lung = system: NCI-H23 lung
# NCI-H522 lung = system: NCI-H522 lung
# A549 NSCLC = system: A549 NSCLC
# A498 renal = system: A498 renal
# OVCAR-5 ovarian = system: OVCAR-5 ovarian
# K-562 leukemia = system: K-562 leukemia
# PC-3 prostate = system: PC-3 prostate
# MCF7 breast = system: MCF7 breast
# HL-60(TB) leukemia = system: HL-60(TB) leukemia
# U251 CNS = system: U251 CNS
# SNB-19 CNS = system: SNB-19 CNS
# MDA-MB-231 breast = system: MDA-MB-231 breast
# HOP-92 NSCLC = system: HOP-92 NSCLC
# MALME-3M melanoma = system: MALME-3M melanoma
# COLO 205 colon = system: COLO 205 colon
# DU-145 prostate = system: DU-145 prostate
# UACC-62 melanoma = system: UACC-62 melanoma
# NCI-H460 lung = system: NCI-H460 lung
# TK-10 renal = system: TK-10 renal
# T-47D breast = system: T-47D breast
# NCI/ADR-RES ovarian = system: NCI/ADR-RES ovarian
# CCRF-CEM leukemia = system: CCRF-CEM leukemia
# EKVX NSCLC = system: EKVX NSCLC
# SK-MEL-5 melanoma = system: SK-MEL-5 melanoma
# M14 melanoma = system: M14 melanoma
# HS 578T breast = system: HS 578T breast
# RPMI-8226 leukemia = system: RPMI-8226 leukemia
# OVCAR-4 ovarian = system: OVCAR-4 ovarian
# RXF 393 renal = system: RXF 393 renal
# SNB-75 CNS = system: SNB-75 CNS
# CAKI-1 renal = system: CAKI-1 renal
# MDA-N = system: MDA-N
smiles,measurement,setting,value
N#C/C(=C/NC(=S)NCc1ccccc1)C(N)=O,TGI,SK-OV-3 ovarian,> 100 µM
same,TGI,SR leukemia,> 100 µM
same,TGI,KM12 colon,> 100 µM
same,TGI,786-0 renal,> 100 µM
same,TGI,HCT-116 colon,> 100 µM
same,TGI,OVCAR-8 ovarian,> 100 µM
same,TGI,UACC-257 melanoma,> 100 µM
same,TGI,SW-620 colon,> 100 µM
same,TGI,SF-268 CNS,> 100 µM
same,TGI,OVCAR-3 ovarian,> 86.1 µM
same,TGI,HCT-15 colon,> 100 µM
same,TGI,SF-539 CNS,> 100 µM
same,TGI,SN12C renal,> 100 µM
same,TGI,SK-MEL-2 melanoma,> 100 µM
same,TGI,UO-31 renal,> 100 µM
same,TGI,HT29 colon,> 100 µM
same,TGI,HOP-62 NSCLC,> 100 µM
same,TGI,IGROV1 ovarian,> 100 µM
same,TGI,SK-MEL-28 melanoma,> 100 µM
same,TGI,MDA-MB-435,> 100 µM
same,TGI,MOLT-4 leukemia,> 100 µM
same,TGI,NCI-H226 lung,> 100 µM
same,TGI,LOX IMVI melanoma,> 100 µM
same,TGI,SF-295 CNS,> 100 µM
same,TGI,HCC-2998 colon,> 100 µM
same,GI50,BT-549 breast,> 100 µM
same,TGI,BT-549 breast,> 100 µM
same,TGI,ACHN renal,> 100 µM
same,TGI,NCI-H23 lung,> 100 µM
same,TGI,NCI-H522 lung,> 100 µM
same,TGI,A549 NSCLC,> 100 µM
same,TGI,A498 renal,> 100 µM
same,TGI,OVCAR-5 ovarian,> 100 µM
same,TGI,K-562 leukemia,> 100 µM
same,TGI,PC-3 prostate,> 100 µM
same,TGI,MCF7 breast,> 100 µM
same,TGI,HL-60(TB) leukemia,> 100 µM
same,TGI,U251 CNS,> 100 µM
same,TGI,SNB-19 CNS,> 100 µM
same,TGI,MDA-MB-231 breast,> 100 µM
same,TGI,HOP-92 NSCLC,> 100 µM
same,TGI,MALME-3M melanoma,> 100 µM
same,TGI,COLO 205 colon,> 100 µM
same,TGI,DU-145 prostate,> 100 µM
same,TGI,UACC-62 melanoma,> 100 µM
same,TGI,NCI-H460 lung,> 100 µM
same,GI50,TK-10 renal,> 100 µM
same,TGI,TK-10 renal,> 100 µM
same,TGI,T-47D breast,> 100 µM
same,TGI,NCI/ADR-RES ovarian,> 100 µM
same,TGI,CCRF-CEM leukemia,> 100 µM
same,TGI,EKVX NSCLC,> 100 µM
same,TGI,SK-MEL-5 melanoma,> 100 µM
same,TGI,M14 melanoma,> 100 µM
same,TGI,HS 578T breast,> 100 µM
same,TGI,RPMI-8226 leukemia,> 100 µM
same,TGI,OVCAR-4 ovarian,> 100 µM
same,TGI,RXF 393 renal,> 100 µM
same,TGI,SNB-75 CNS,> 100 µM
same,TGI,CAKI-1 renal,> 100 µM
same,TGI,MDA-N,> 100 µM
